Reference: patent US10981862B2, “Physiological cooling compounds” (Symrise, Inc., priority 2015, dated 2021)
One block for each molecule: values may come before it.

How the values were obtained:
[1] = tested on: sensory panel; experiment: Sensory panel evaluation of cooling ability, 20 ppm aqueous solutions; type: in vivo; design: key to Peak cooling strength / Peak Strength: —: Not cooling under tested conditions; conditions: for Longevity of cooling sensation / Time to reach peak cooling / Time period at peak cooling / Peak cooling strength / Peak Strength: 20 ppm aqueous solution; for Time period at peak cooling: cooling plateau; for Peak cooling strength: maximum cooling strength rated on a 1-10 scale; for Peak Strength: Table 4, repeats Table 2, 1-10 scale; for Cooling properties, in words: sensory panel results
Method: The new carboxamides A1-A15 and B1-B15 were evaluated for their cooling ability by a sensory panel. The evaluation included tasting the 20 ppm aqueous solutions of new carboxamides and rating their maximum cooling strength on a 1-10 scale. In addition, the time at which maximum cooling strength was reached, how long the maximum strength was observed (so called cooling plateau), and the longevity of cooling sensation were recorded. The FIGURE represents a typical cooling profile, using compound A1 as an example. The obtained results (table 2), were compared with two most commonly used commercial cooling compounds WS-3 and WS-23 which belong to the same class of N-alkyl carboxamides. While various methods exist for evaluation of cooling compounds, we have chosen the parameters that allow to assess the practical aspects of new compounds that reflect their potential value as commercial sensory ingredients.

[2] = amount of compound needed to produce a cooling sensation; cited from earlier work
[3] = Cooling strength and longevity in alcohol-free mouthwash; type: in vivo; conditions: compared with WS-5
Method: Select physiological coolants according to various embodiments were tested in an alcohol-free mouthwash and their impact was evaluated against the control (a known coolant WS-5).

[4] = Cooling strength and longevity in toothpaste; type: in vivo; conditions: compared with controls
Method: New cooling compound according to compound A2 was tested in toothpaste and its impact was evaluated against two controls (no coolant and a known coolant WS-5) and in combination with WS-5.

[5] = Cooling evaluation in hard boiled candy; type: in vivo; conditions: compared with both control samples
Method: Compound A2 was tested in hard boiled candy and evaluated against controls.

SMILES: CNC(=O)C(C)(C(C)C)C(C)C [WS-23, reference compound]
Longevity of cooling sensation [1]: 7 min
Time to reach peak cooling [1]: 2 min
Time period at peak cooling [1]: 2 min
Peak cooling strength [1]: 4

SMILES: CCCCCCCCNC(=O)C(C)(C(C)C)C(C)C [Compound B12]
Peak cooling strength [1]: — ^a

SMILES: CCCCCCCNC(=O)C1CC(C)CCC1C(C)C (centres unmarked) [Compound A10]
Longevity of cooling sensation [1]: 19 min
Time to reach peak cooling [1]: 4 min
Time period at peak cooling [1]: 1 min
Peak cooling strength [1]: 5
Peak Strength [1]: 5

SMILES: CNC(=O)C1CC(C)CCC1C(C)C (centres unmarked) [Methyl]
Threshold [2]: 1.1 µg

SMILES: CCNC(=O)C1CC(C)CCC1C(C)C (centres unmarked) [WS-3, reference compound]
Threshold [2]: 0.3 µg
Longevity of cooling sensation [1]: 11 min
Time to reach peak cooling [1]: 2 min
Time period at peak cooling [1]: 2 min
Peak cooling strength [1]: 5

SMILES: CC(C)CCCC(C)NC(=O)C1CC(C)CCC1C(C)C (centres unmarked) [Compound A14]
melting point: 146.7 °C
Peak cooling strength [1]: — ^a
Peak Strength [1]: —^a

SMILES: CCCCCCCCNC(=O)C1CC(C)CCC1C(C)C (centres unmarked) [Compound A12]
Longevity of cooling sensation [1]: 10 min
Time to reach peak cooling [1]: 6 min
Time period at peak cooling [1]: 4 min
Peak cooling strength [1]: 2
Peak Strength [1]: 2

SMILES: CCCCCCNC(=O)C1CC(C)CCC1C(C)C (centres unmarked) [Compound A8]
Cooling effect in mouthwash, in words [3]: superior long-lasting cooling effect
melting point: 58.8 °C
Longevity of cooling sensation [1]: 29 min
Time to reach peak cooling [1]: 5 min
Time period at peak cooling [1]: 2 min
Peak cooling strength [1]: 6
Peak Strength [1]: 6
Cooling properties, in words [1]: peak cooling strength exceeds both WS-3 and A4

SMILES: CCC(C)(C)NC(=O)C(C)(C(C)C)C(C)C [Compound B1]
Peak cooling strength [1]: — ^a
Cooling properties, in words [1]: does not possess any cooling properties

SMILES: CC(C)C(C)(C(=O)NC(C)(C)CC(C)(C)C)C(C)C [Compound B15]
Peak cooling strength [1]: — ^a

SMILES: CCC(CC)NC(=O)C1CC(C)CCC1C(C)C (centres unmarked) [Compound A7]
melting point: 192.6 °C
Longevity of cooling sensation [1]: 16 min
Time to reach peak cooling [1]: 3 min
Time period at peak cooling [1]: 2 min
Peak cooling strength [1]: 6
Peak Strength [1]: 6

SMILES: CC1CCC(C(C)C)C(C(=O)NC(C)C(C)C)C1 (centres unmarked) [Compound A4]
melting point: 160.2 °C
Longevity of cooling sensation [1]: 20 min
Time to reach peak cooling [1]: 3 min
Time period at peak cooling [1]: 2 min
Peak cooling strength [1]: 5
Peak Strength [1]: 5

SMILES: CCC(C)CNC(=O)C1CC(C)CCC1C(C)C (centres unmarked) [Compound A6]
melting point: 92.8 °C
Longevity of cooling sensation [1]: 20 min
Time to reach peak cooling [1]: 3 min
Time period at peak cooling [1]: 2 min
Peak cooling strength [1]: 6
Peak Strength [1]: 6

SMILES: CCCCCCCNC(=O)C(C)(C(C)C)C(C)C [Compound B10]
Peak cooling strength [1]: — ^a

SMILES: CCCCCCNC(=O)C(C)(C(C)C)C(C)C [Compound B8]
Longevity of cooling sensation [1]: 17 min
Time to reach peak cooling [1]: 4 min
Time period at peak cooling [1]: 1 min
Peak cooling strength [1]: 3

SMILES: CCCCCC(C)NC(=O)C1CC(C)CCC1C(C)C (centres unmarked) [Compound A11]
Longevity of cooling sensation [1]: 15 min
Time to reach peak cooling [1]: 8 min
Time period at peak cooling [1]: 2 min
Peak cooling strength [1]: 2
Peak Strength [1]: 2

SMILES: CC(C)CC(C)NC(=O)C1CC(C)CCC1C(C)C (centres unmarked) [Compound A9]
melting point: 152.6 °C
Longevity of cooling sensation [1]: 15 min
Time to reach peak cooling [1]: 5 min
Time period at peak cooling [1]: 4 min
Peak cooling strength [1]: 3
Peak Strength [1]: 3

More lines, main results first:

melting point: 83.7 °C
SMILES: CC(C)CC(C)NC(=O)C(C)(C(C)C)C(C)C (centres unmarked) [Compound B9]
Longevity of cooling sensation [1]: 18 min
Time to reach peak cooling [1]: 4 min
Time period at peak cooling [1]: 2 min
Peak cooling strength [1]: 5

melting point: 82.5 °C
SMILES: CCCCC(CC)CNC(=O)C(C)(C(C)C)C(C)C (centres unmarked) [Compound B13]
Peak cooling strength [1]: — ^a

melting point: 98 °C
SMILES: CCCC(C)NC(=O)C(C)(C(C)C)C(C)C (centres unmarked) [Compound B5]
Longevity of cooling sensation [1]: 15 min
Time to reach peak cooling [1]: 2 min
Time period at peak cooling [1]: 3 min
Peak cooling strength [1]: 6

melting point: 46.9 °C
SMILES: CCCCCC(C)NC(=O)C(C)(C(C)C)C(C)C (centres unmarked) [Compound B11]
Peak cooling strength [1]: — ^a

melting point: 67.1 °C
SMILES: CCC(C)CNC(=O)C(C)(C(C)C)C(C)C (centres unmarked) [Compound B6]
Longevity of cooling sensation [1]: 17 min
Time to reach peak cooling [1]: 3 min
Time period at peak cooling [1]: 2 min
Peak cooling strength [1]: 4

melting point: 65.9 °C
SMILES: CC(C)C(C)(C(=O)NCC(C)(C)C)C(C)C [Compound B3]
Longevity of cooling sensation [1]: 15 min
Time to reach peak cooling [1]: 3 min
Time period at peak cooling [1]: 3 min
Peak cooling strength [1]: 3

melting point: 107 °C
SMILES: CC1CCC(C(C)C)C(C(=O)NC(C)(C)CC(C)(C)C)C1 (centres unmarked) [Compound A15]
Longevity of cooling sensation [1]: 14 min
Time to reach peak cooling [1]: 4 min
Time period at peak cooling [1]: 6 min
Peak cooling strength [1]: 2
Peak Strength [1]: 2
Cooling properties, in words [1]: only as strong as A12 and much weaker than other coolants

melting point: 88.4 °C
SMILES: CC(C)C(C)NC(=O)C(C)(C(C)C)C(C)C (centres unmarked) [Compound B4]
Longevity of cooling sensation [1]: 14 min
Time to reach peak cooling [1]: 3 min
Time period at peak cooling [1]: 2 min
Peak cooling strength [1]: 4

melting point: 105 °C
SMILES: CCC(CC)NC(=O)C(C)(C(C)C)C(C)C [Compound B7]
Longevity of cooling sensation [1]: 14 min
Time to reach peak cooling [1]: 4 min
Time period at peak cooling [1]: 2 min
Peak cooling strength [1]: 4

melting point: 72.2 °C
SMILES: CC(C)CCNC(=O)C(C)(C(C)C)C(C)C [Compound B2]
Longevity of cooling sensation [1]: 12 min
Time to reach peak cooling [1]: 3 min
Time period at peak cooling [1]: 2 min
Peak cooling strength [1]: 2

melting point: 59.4 °C
SMILES: CC(C)CCCC(C)NC(=O)C(C)(C(C)C)C(C)C (centres unmarked) [Compound B14]
Peak cooling strength [1]: — ^a

melting point: 133.1 °C
SMILES: CCC(C)(C)NC(=O)C1CC(C)CCC1C(C)C (centres unmarked) [Compound A1]
Cooling effect in mouthwash, in words [3]: superior long-lasting cooling effect
Longevity of cooling sensation [1]: 25 min
Time to reach peak cooling [1]: 6 min
Time period at peak cooling [1]: 2 min
Peak cooling strength [1]: 8
Peak Strength [1]: 8
Cooling properties, in words [1]: one of the most potent coolants found among the N-alkyl p-menthane carboxamides

melting point: 69.6 °C
SMILES: CC(C)CCNC(=O)C1CC(C)CCC1C(C)C (centres unmarked) [Compound A2]
Cooling effect in mouthwash, in words [3]: superior long-lasting cooling effect
Cooling effect in toothpaste, in words [4]: superior and longer lasting effect
Cooling impact in hard candy, in words [5]: long-lasting cooling impact
Longevity of cooling sensation [1]: 23 min
Time to reach peak cooling [1]: 5 min
Time period at peak cooling [1]: 2 min
Peak cooling strength [1]: 7
Peak Strength [1]: 7

melting point: 152.4 °C
SMILES: CC1CCC(C(C)C)C(C(=O)NCC(C)(C)C)C1 (centres unmarked) [Compound A3]
Longevity of cooling sensation [1]: 22 min
Time to reach peak cooling [1]: 4 min
Time period at peak cooling [1]: 3 min
Peak cooling strength [1]: 7
Peak Strength [1]: 7
